Results from patent US8765944B2, “Compounds for the treatment of hepatitis C” (priority 2010, dated 2014).

system: HCV pseudoparticles; test: HCV pseudoparticle infection assay (luciferase reporter, Huh7 cells); type: cell-based, HCV (genotype 1b E1 and E2 envelope); details: Hepatitis C virus, genotype 1b, Huh-7, 48 h, HCV pseudoparticles (genotype 1b), luciferase activity 2 days after infection

SMILES	EC50 [nM]
C=CS(=O)(=O)NC(=O)c1ccc(Nc2nc(NC3(c4ccc(Cl)cc4)CC3)nc(OCC(F)(F)F)n2)cc1 [Example 1004]	5.3
CN(C)S(=O)(=O)NC(=O)c1ccc(Nc2nc(NC3(c4ccc(Cl)cc4)CC3)nc(OCC(F)(F)F)n2)cc1 [Example 1006]	39
CCC1(S(=O)(=O)NC(=O)c2ccc(Nc3nc(NC4(c5ccc(Cl)cc5)CC4)nc(OCC(F)(F)F)n3)cc2)CC1 [Example 1008]	81
O=C(NS(=O)(=O)C1(CN2CCCC2)CC1)c1ccc(Nc2nc(NC3(c4ccc(Cl)cc4)CC3)nc(OCC(F)(F)F)n2)cc1 [Example 1011]	0.48
CN(C)CC1(S(=O)(=O)NC(=O)c2ccc(Nc3nc(NC4(c5ccc(Cl)cc5)CC4)nc(OCC(F)(F)F)n3)cc2)CC1 [Example 1012]	0.25
CN(CC1(S(=O)(=O)NC(=O)c2ccc(Nc3nc(NC4(c5ccc(Cl)cc5)CC4)nc(OCC(F)(F)F)n3)cc2)CC1)c1ccccc1 [Example 1021]	94
CNC(=O)OCC1(S(=O)(=O)NC(=O)c2ccc(Nc3nc(NC4(c5ccc(Cl)cc5)CC4)nc(OCC(F)(F)F)n3)cc2)CC1 [Example 1026]	103
O=C(Nc1cccnc1)OCC1(S(=O)(=O)NC(=O)c2ccc(Nc3nc(NC4(c5ccc(Cl)cc5)CC4)nc(OCC(F)(F)F)n3)cc2)CC1 [Example 1028]	60
CS(=O)(=O)NC(=O)CNC(=O)c1ccc(Nc2nc(NC3(c4ccc(Cl)cc4)CC3)nc(OCC(F)(F)F)n2)cc1 [Example 2009]	97
C=CS(=O)(=O)NC(=O)CNC(=O)c1ccc(Nc2nc(NC3(c4ccc(Cl)cc4)CC3)nc(OCC(F)(F)F)n2)cc1 [Example 2010]	67

same assay, conditions: Hepatitis C virus, genotype 1b, Huh-7, 48 h, HCV pseudoparticles (genotype 1b), luciferase activity 2 days after infection, class

SMILES	EC50 [nM]
O=C(NS(=O)(=O)C1CC1)c1ccc(Nc2nc(NC3(c4ccc(Cl)cc4)CC3)nc(OCC(F)(F)F)n2)cc1 [Example 1001]	0.5 to 100
CS(=O)(=O)NC(=O)c1ccc(Nc2nc(NC3(c4ccc(Cl)cc4)CC3)nc(OCC(F)(F)F)n2)cc1 [Example 1002]	0.5 to 100
CCS(=O)(=O)NC(=O)c1ccc(Nc2nc(NC3(c4ccc(Cl)cc4)CC3)nc(OCC(F)(F)F)n2)cc1 [Example 1003]	0.5 to 100
C=CS(=O)(=O)NC(=O)c1ccc(Nc2nc(NC3(c4ccc(Cl)cc4)CC3)nc(OCC(F)(F)F)n2)cc1 [Example 1004]	0.5 to 100
CC(C)S(=O)(=O)NC(=O)c1ccc(Nc2nc(NC3(c4ccc(Cl)cc4)CC3)nc(OCC(F)(F)F)n2)cc1 [Example 1005]	0.5 to 100
CN(C)S(=O)(=O)NC(=O)c1ccc(Nc2nc(NC3(c4ccc(Cl)cc4)CC3)nc(OCC(F)(F)F)n2)cc1 [Example 1006]	0.5 to 100
CCCC1(S(=O)(=O)NC(=O)c2ccc(Nc3nc(NC4(c5ccc(Cl)cc5)CC4)nc(OCC(F)(F)F)n3)cc2)CC1 [Example 1007]	0.5 to 100
CCC1(S(=O)(=O)NC(=O)c2ccc(Nc3nc(NC4(c5ccc(Cl)cc5)CC4)nc(OCC(F)(F)F)n3)cc2)CC1 [Example 1008]	0.5 to 100
O=C(NS(=O)(=O)CCCCl)c1ccc(Nc2nc(NC3(c4ccc(Cl)cc4)CC3)nc(OCC(F)(F)F)n2)cc1 [Example 1009]	0.5 to 100
COCC1(S(=O)(=O)NC(=O)c2ccc(Nc3nc(NC4(c5ccc(Cl)cc5)CC4)nc(OCC(F)(F)F)n3)cc2)CC1 [Example 1010]	0.5 to 100
O=C(NS(=O)(=O)C1(CN2CCCC2)CC1)c1ccc(Nc2nc(NC3(c4ccc(Cl)cc4)CC3)nc(OCC(F)(F)F)n2)cc1 [Example 1011]	0.5 to 100
CN(C)CC1(S(=O)(=O)NC(=O)c2ccc(Nc3nc(NC4(c5ccc(Cl)cc5)CC4)nc(OCC(F)(F)F)n3)cc2)CC1 [Example 1012]	0.5 to 100
O=C(NS(=O)(=O)C1(CN2CCC2)CC1)c1ccc(Nc2nc(NC3(c4ccc(Cl)cc4)CC3)nc(OCC(F)(F)F)n2)cc1 [Example 1013]	0.5 to 100
CCN(CC)CC1(S(=O)(=O)NC(=O)c2ccc(Nc3nc(NC4(c5ccc(Cl)cc5)CC4)nc(OCC(F)(F)F)n3)cc2)CC1 [Example 1014]	0.5 to 100
O=C(NS(=O)(=O)C1(CN2CCOCC2)CC1)c1ccc(Nc2nc(NC3(c4ccc(Cl)cc4)CC3)nc(OCC(F)(F)F)n2)cc1 [Example 1015]	0.5 to 100
CC1(C)CCCN1CC1(S(=O)(=O)NC(=O)c2ccc(Nc3nc(NC4(c5ccc(Cl)cc5)CC4)nc(OCC(F)(F)F)n3)cc2)CC1 [Example 1016]	0.5 to 100
NC(=O)C1C[C@@H]2C[C@@H]2N1CC1(S(=O)(=O)NC(=O)c2ccc(Nc3nc(NC4(c5ccc(Cl)cc5)CC4)nc(OCC(F)(F)F)n3)cc2)CC1 (some centres unmarked) [Example 1017]	0.5 to 100
CC(=O)N1CCN(CC2(S(=O)(=O)NC(=O)c3ccc(Nc4nc(NC5(c6ccc(Cl)cc6)CC5)nc(OCC(F)(F)F)n4)cc3)CC2)CC1 [Example 1018]	0.5 to 100
O=C(NS(=O)(=O)C1(CN2CCN(c3ccncc3)CC2)CC1)c1ccc(Nc2nc(NC3(c4ccc(Cl)cc4)CC3)nc(OCC(F)(F)F)n2)cc1 [Example 1019]	0.5 to 100
CN1CCN(CC2(S(=O)(=O)NC(=O)c3ccc(Nc4nc(NC5(c6ccc(Cl)cc6)CC5)nc(OCC(F)(F)F)n4)cc3)CC2)CC1 [Example 1020]	0.5 to 100
CN(CC1(S(=O)(=O)NC(=O)c2ccc(Nc3nc(NC4(c5ccc(Cl)cc5)CC4)nc(OCC(F)(F)F)n3)cc2)CC1)c1ccccc1 [Example 1021]	0.5 to 100
CN(CC1(S(=O)(=O)NC(=O)c2ccc(Nc3nc(NC4(c5ccc(Cl)cc5)CC4)nc(OCC(F)(F)F)n3)cc2)CC1)C1CC1 [Example 1022]	0.5 to 100
CC1(C)CCN(CC2(S(=O)(=O)NC(=O)c3ccc(Nc4nc(NC5(c6ccc(Cl)cc6)CC5)nc(OCC(F)(F)F)n4)cc3)CC2)C1 [Example 1023]	0.5 to 100
O=C(NS(=O)(=O)C1(CN2CC3CC3C2)CC1)c1ccc(Nc2nc(NC3(c4ccc(Cl)cc4)CC3)nc(OCC(F)(F)F)n2)cc1 (centres unmarked) [Example 1024]	0.5 to 100
O=C(NS(=O)(=O)C1(CO)CC1)c1ccc(Nc2nc(NC3(c4ccc(Cl)cc4)CC3)nc(OCC(F)(F)F)n2)cc1 [Example 1025, 4-(4-(1-(4-chlorophenyl)cyclopropylamino)-6-(2,2,2-trifluoroethoxy)-1,3,5-triazin-2-ylamino)-N-(1-(hydroxymethyl)cyclopropylsulfonyl)benzamide]	0.5 to 100
CNC(=O)OCC1(S(=O)(=O)NC(=O)c2ccc(Nc3nc(NC4(c5ccc(Cl)cc5)CC4)nc(OCC(F)(F)F)n3)cc2)CC1 [Example 1026]	100 to 1000
CC(C)NC(=O)OCC1(S(=O)(=O)NC(=O)c2ccc(Nc3nc(NC4(c5ccc(Cl)cc5)CC4)nc(OCC(F)(F)F)n3)cc2)CC1 [Example 1027]	0.5 to 100
O=C(Nc1cccnc1)OCC1(S(=O)(=O)NC(=O)c2ccc(Nc3nc(NC4(c5ccc(Cl)cc5)CC4)nc(OCC(F)(F)F)n3)cc2)CC1 [Example 1028]	0.5 to 100

SMILES	EC50 [nM]
O=C(NS(=O)(=O)CCN1CCCC1)c1ccc(Nc2nc(NC3(c4ccc(Cl)cc4)CC3)nc(OCC(F)(F)F)n2)cc1 [Example 1029, 4-(4-(1-(4-chlorophenyl)cyclopropylamino)-6-(2,2,2-trifluoroethoxy)-1,3,5-triazin-2-ylamino)-N-(2-(pyrrolidin-1-yl)ethylsulfonyl)benzamide]	0.5 to 100
O=C(NS(=O)(=O)CCN1CCOCC1)c1ccc(Nc2nc(NC3(c4ccc(Cl)cc4)CC3)nc(OCC(F)(F)F)n2)cc1 [Example 1030]	0.5 to 100
CN(C)CCS(=O)(=O)NC(=O)c1ccc(Nc2nc(NC3(c4ccc(Cl)cc4)CC3)nc(OCC(F)(F)F)n2)cc1 [Example 1031]	0.5 to 100
CCN(CC)CCS(=O)(=O)NC(=O)c1ccc(Nc2nc(NC3(c4ccc(Cl)cc4)CC3)nc(OCC(F)(F)F)n2)cc1 [Example 1032]	0.5 to 100
CC(C)(C)CNCCS(=O)(=O)NC(=O)c1ccc(Nc2nc(NC3(c4ccc(Cl)cc4)CC3)nc(OCC(F)(F)F)n2)cc1 [Example 1033]	0.5 to 100
O=C(NS(=O)(=O)CCNCc1ccccc1)c1ccc(Nc2nc(NC3(c4ccc(Cl)cc4)CC3)nc(OCC(F)(F)F)n2)cc1 [Example 1034]	0.5 to 100
CC(C)NCCS(=O)(=O)NC(=O)c1ccc(Nc2nc(NC3(c4ccc(Cl)cc4)CC3)nc(OCC(F)(F)F)n2)cc1 [Example 1035]	0.5 to 100
CC(=O)NCCS(=O)(=O)NC(=O)c1ccc(Nc2nc(NC3(c4ccc(Cl)cc4)CC3)nc(OCC(F)(F)F)n2)cc1 [Example 1036]	0.5 to 100
O=C(NCCS(=O)(=O)NC(=O)c1ccc(Nc2nc(NC3(c4ccc(Cl)cc4)CC3)nc(OCC(F)(F)F)n2)cc1)c1ccccc1 [Example 1037]	0.5 to 100
CC(C)C(=O)NCCS(=O)(=O)NC(=O)c1ccc(Nc2nc(NC3(c4ccc(Cl)cc4)CC3)nc(OCC(F)(F)F)n2)cc1 [Example 1038]	0.5 to 100
O=C(NS(=O)(=O)CCNC(=O)C1CC1)c1ccc(Nc2nc(NC3(c4ccc(Cl)cc4)CC3)nc(OCC(F)(F)F)n2)cc1 [Example 1039]	0.5 to 100
O=C(CC(F)(F)F)NCCS(=O)(=O)NC(=O)c1ccc(Nc2nc(NC3(c4ccc(Cl)cc4)CC3)nc(OCC(F)(F)F)n2)cc1 [Example 1040]	0.5 to 100
CC(C)(C)OC(=O)N1CCC[C@H]1C(=O)NCCS(=O)(=O)NC(=O)c1ccc(Nc2nc(NC3(c4ccc(Cl)cc4)CC3)nc(OCC(F)(F)F)n2)cc1 [Example 1041]	0.5 to 100
CC(C)(C)OC(=O)N1CCC(C(=O)NCCS(=O)(=O)NC(=O)c2ccc(Nc3nc(NC4(c5ccc(Cl)cc5)CC4)nc(OCC(F)(F)F)n3)cc2)CC1 [Example 1042]	0.5 to 100
O=C(NCCS(=O)(=O)NC(=O)c1ccc(Nc2nc(NC3(c4ccc(Cl)cc4)CC3)nc(OCC(F)(F)F)n2)cc1)c1cccnc1 [Example 1043]	0.5 to 100
COC(=O)NCCS(=O)(=O)NC(=O)c1ccc(Nc2nc(NC3(c4ccc(Cl)cc4)CC3)nc(OCC(F)(F)F)n2)cc1 [Example 1044]	0.5 to 100
CC(C)OC(=O)NCCS(=O)(=O)NC(=O)c1ccc(Nc2nc(NC3(c4ccc(Cl)cc4)CC3)nc(OCC(F)(F)F)n2)cc1 [Example 1045]	0.5 to 100
CC(C)(C)COC(=O)NCCS(=O)(=O)NC(=O)c1ccc(Nc2nc(NC3(c4ccc(Cl)cc4)CC3)nc(OCC(F)(F)F)n2)cc1 [Example 1046]	0.5 to 100
CNC(=O)NCCS(=O)(=O)NC(=O)c1ccc(Nc2nc(NC3(c4ccc(Cl)cc4)CC3)nc(OCC(F)(F)F)n2)cc1 [Example 1047]	0.5 to 100
CC(C)NC(=O)NCCS(=O)(=O)NC(=O)c1ccc(Nc2nc(NC3(c4ccc(Cl)cc4)CC3)nc(OCC(F)(F)F)n2)cc1 [Example 1048]	0.5 to 100
CC(C)(C)NC(=O)NCCS(=O)(=O)NC(=O)c1ccc(Nc2nc(NC3(c4ccc(Cl)cc4)CC3)nc(OCC(F)(F)F)n2)cc1 [Example 1049]	0.5 to 100
O=C(NCCS(=O)(=O)NC(=O)c1ccc(Nc2nc(NC3(c4ccc(Cl)cc4)CC3)nc(OCC(F)(F)F)n2)cc1)Nc1cccnc1 [Example 1050]	0.5 to 100
CS(=O)(=O)NC(=O)CNC(=O)c1ccc(Nc2nc(NC3(c4ccc(Cl)cc4)CC3)nc(OCC(F)(F)F)n2)cc1 [Example 2009]	0.5 to 100
C=CS(=O)(=O)NC(=O)CNC(=O)c1ccc(Nc2nc(NC3(c4ccc(Cl)cc4)CC3)nc(OCC(F)(F)F)n2)cc1 [Example 2010]	0.5 to 100
CS(=O)(=O)NC(=O)CCCCNC(=O)c1ccc(Nc2nc(NC3(c4ccc(Cl)cc4)CC3)nc(OCC(F)(F)F)n2)cc1 [Example 2011]	0.5 to 100
O=C(CCCCNC(=O)c1ccc(Nc2nc(NC3(c4ccc(Cl)cc4)CC3)nc(OCC(F)(F)F)n2)cc1)NS(=O)(=O)C1CC1 [Example 2012]	0.5 to 100
CC(C)S(=O)(=O)NC(=O)CCCCNC(=O)c1ccc(Nc2nc(NC3(c4ccc(Cl)cc4)CC3)nc(OCC(F)(F)F)n2)cc1 [Example 2013]	0.5 to 100
